According to the NIST ThermoML archive (doi:10.1016/j.tca.2019.01.018):

Assays:
[1] = xn = mol fraction of the nth substance listed; conditions: Ring tensiometer
[2] = Ring tensiometer

O [water] + CCn1cc[n+](C)c1.F[B-](F)(F)F
[1], x2 = 0
Conditions	surface tension liquid-gas [mN/m]
298.15 K	71.8
308.15 K	70.1
318.15 K	68.4
328.15 K	66.7
338.15 K	65

CCn1cc[n+](C)c1.F[B-](F)(F)F [1-ethyl-3-methylimidazolium tetrafluoroborate]
[2]
Conditions	surface tension liquid-gas [mN/m]
298.15 K	52.05
308.15 K	51.65
318.15 K	51.25
328.15 K	50.85
338.15 K	50.45

CCCCn1cc[n+](C)c1.F[B-](F)(F)F [1-butyl-3-methylimidazolium tetrafluoroborate] + O
surface tension liquid-gas [mN/m], [1]
Conditions	x1 = 0.02	x1 = 0.04	x1 = 0.06	x1 = 0.08	x1 = 0.1	x1 = 0.2	x1 = 0.4	x1 = 0.6	x1 = 0.8	x1 = 1
298.15 K	49.07	47.16	47.05	46.95	46.8	46.3	45.9	45.4	45	44.6
308.15 K	48.15	45.95	45.85	45.75	45.65	45.45	44.95	44.55	44.35	43.65
318.15 K	47.35	45.15	45.05	44.95	44.85	44.65	44.15	43.75	43.55	42.95
328.15 K	46.55	44.35	44.25	44.15	44.05	43.85	43.35	42.95	42.75	42.25
338.15 K	45.75	43.55	43.45	43.35	43.25	43.05	42.55	42.15	41.95	41.55

O [water] + CCCCCCn1cc[n+](C)c1.F[B-](F)(F)F
[1], x2 = 0
Conditions	surface tension liquid-gas [mN/m]
298.15 K	71.8
308.15 K	70.1
318.15 K	68.4
328.15 K	66.7
338.15 K	65

CCn1cc[n+](C)c1.F[B-](F)(F)F [1-ethyl-3-methylimidazolium tetrafluoroborate] + O
surface tension liquid-gas [mN/m], [1]
Conditions	x1 = 0.02	x1 = 0.04	x1 = 0.06	x1 = 0.08	x1 = 0.1	x1 = 0.2	x1 = 0.4	x1 = 0.6	x1 = 0.8	x1 = 1
298.15 K	60.27	57.47	56.49	55.52	54.98	53.92	53.61	53.23	52.73	52.05
308.15 K	59.07	56.47	55.69	54.82	54.38	53.52	53.21	52.83	52.33	51.65
318.15 K	57.87	55.47	54.89	54.12	53.78	53.12	52.81	52.43	51.93	51.25
328.15 K	56.67	54.47	54.09	53.42	53.18	52.72	52.41	52.03	51.53	50.85
338.15 K	55.47	53.47	53.29	52.72	52.58	52.32	52.01	51.63	51.13	50.45

O [water]
[2]
Conditions	surface tension liquid-gas [mN/m]
298.15 K	71.8
308.15 K	70.1
318.15 K	68.4
328.15 K	66.7
338.15 K	65

CCCCCCn1cc[n+](C)c1.F[B-](F)(F)F [1-hexyl-3-methylimidazolium tetrafluoroborate] + O
surface tension liquid-gas [mN/m], [1]
Conditions	x1 = 0.3	x1 = 0.4	x1 = 0.5	x1 = 0.6	x1 = 0.7	x1 = 0.8	x1 = 0.9	x1 = 1
298.15 K	38.1	37.7	37.54	37.42	37.33	37.26	37.23	37.22
308.15 K	37.26	37.08	36.84	36.82	36.73	36.66	36.63	36.62
318.15 K	36.56	36.28	36.34	36.12	36.03	35.86	35.93	35.92
328.15 K	35.96	35.68	35.64	35.42	35.33	35.26	35.23	35.22
338.15 K	35.26	34.98	34.84	34.72	34.63	34.56	34.53	34.52

CCCCCCn1cc[n+](C)c1.F[B-](F)(F)F [1-hexyl-3-methylimidazolium tetrafluoroborate]
[2]
Conditions	surface tension liquid-gas [mN/m]
298.15 K	37.22
308.15 K	36.62
318.15 K	35.92
328.15 K	35.22
338.15 K	34.52

O [water] + CCCCn1cc[n+](C)c1.F[B-](F)(F)F
[1], x2 = 0
Conditions	surface tension liquid-gas [mN/m]
298.15 K	71.8
308.15 K	70.1
318.15 K	68.4
328.15 K	66.7
338.15 K	65

CCCCn1cc[n+](C)c1.F[B-](F)(F)F [1-butyl-3-methylimidazolium tetrafluoroborate]
[2]
Conditions	surface tension liquid-gas [mN/m]
298.15 K	44.6
308.15 K	43.65
318.15 K	42.95
328.15 K	42.25
338.15 K	41.55
